Data published in patent publication USRE49735E1 (BRISTOL-MYERS SQUIBB COMPANY, priority 2010, dated 2023).
“And” between values parts separate entries of the source, which are not always exact repeats. Identical values can stand only once.

target: human mGluR5A (Homo sapiens, UniProt P41594); test: mGluR5 FLIPR Assay; assay type: cell-based; settings: positive modulator activity; HEK293 (ZF) cells with human mGluR5A and rat GLAST; Ca++ response to ~EC10 glutamate
Experimental: HEK293 (ZF) cells stably transfected with human mGluR5A (pIRES neo) and the rat glutamate-aspartate transporter (GLAST; pIRES puro) are grown in a monolayer culture at 37° C. in 5% CO2 and fed with Minimum Essential Medium (MEM) supplemented with 10% dialysed fetal bovine serum. 24 hours prior to assay, cells are enzymatically dissociated from the culture flask (Trypsin, 0.25%), spun down (1000 rpm, 3 min), resuspended, and plated on Greiner black clear bottomed PDL-coated 384-well plates at a density of 30 thousand cells/well. […] Plates are incubated in dye at 37° C. in 5% CO2 for 60 minutes prior to delivery of test compounds in assay buffer. Test compounds are incubated with cells in the presence of dye for 10 minutes prior to being read on the FLIPR platform (Molecular Devices). A Ca^++ signal is induced in the assay plates via the delivery of an ˜EC10 concentration of the endogenous agonist 1-glutamate; images are acquired at 1 Hz for 100 seconds post-delivery of agonist stimulus. Positive modulator activity (i.e. the ability of test compounds to increase the Ca^++ response to a sub-maximal concentration of agonist) is normalized to a saturating concentration of a known mGluR5 PAM run in each assay plate. An EC50 concentration of test compounds is derived from 4-parameter logistic curve fits of transformed fluoresence data via proprietary software suite.

Chain of human mGluR5A (P41594 21-1180 isoform P41594-2): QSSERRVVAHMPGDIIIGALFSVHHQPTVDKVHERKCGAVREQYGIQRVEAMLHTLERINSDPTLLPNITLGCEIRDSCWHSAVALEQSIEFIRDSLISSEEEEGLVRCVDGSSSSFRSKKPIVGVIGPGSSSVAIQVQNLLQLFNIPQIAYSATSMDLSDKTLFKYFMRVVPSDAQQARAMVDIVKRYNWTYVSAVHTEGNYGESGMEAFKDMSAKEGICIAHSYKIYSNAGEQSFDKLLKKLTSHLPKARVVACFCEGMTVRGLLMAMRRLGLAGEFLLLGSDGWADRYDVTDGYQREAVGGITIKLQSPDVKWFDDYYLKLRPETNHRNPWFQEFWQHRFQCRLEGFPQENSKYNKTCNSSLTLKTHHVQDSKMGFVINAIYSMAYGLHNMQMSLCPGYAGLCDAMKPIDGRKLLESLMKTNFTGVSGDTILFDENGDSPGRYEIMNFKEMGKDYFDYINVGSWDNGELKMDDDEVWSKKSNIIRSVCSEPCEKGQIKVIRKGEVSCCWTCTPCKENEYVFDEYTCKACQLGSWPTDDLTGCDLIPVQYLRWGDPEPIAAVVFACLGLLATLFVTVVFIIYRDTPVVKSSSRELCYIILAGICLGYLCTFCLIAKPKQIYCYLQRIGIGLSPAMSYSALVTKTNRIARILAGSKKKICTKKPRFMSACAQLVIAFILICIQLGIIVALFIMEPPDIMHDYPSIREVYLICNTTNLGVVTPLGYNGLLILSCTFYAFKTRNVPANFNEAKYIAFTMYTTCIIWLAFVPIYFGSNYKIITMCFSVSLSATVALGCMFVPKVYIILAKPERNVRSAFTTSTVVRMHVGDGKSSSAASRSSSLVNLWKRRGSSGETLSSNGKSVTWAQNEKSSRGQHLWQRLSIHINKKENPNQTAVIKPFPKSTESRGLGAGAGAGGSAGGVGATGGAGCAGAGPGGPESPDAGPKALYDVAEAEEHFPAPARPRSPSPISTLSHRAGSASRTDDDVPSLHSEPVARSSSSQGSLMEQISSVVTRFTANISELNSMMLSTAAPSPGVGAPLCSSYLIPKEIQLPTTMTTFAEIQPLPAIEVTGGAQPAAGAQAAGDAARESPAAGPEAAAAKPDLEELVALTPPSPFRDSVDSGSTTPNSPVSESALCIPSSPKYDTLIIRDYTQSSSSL

Structure (SMILES)	EC50
O=C1N[C@H](c2cncc(C#Cc3cccc(F)c3)c2)[C@@H](c2cccc(F)c2)O1 [Example 400, (4R,5R)-5-(3-fluorophenyl)-4-(5-((3-fluorophenyl)ethynyl)pyridin-3-yl)oxazolidin-2-one]	< 100 nM
COc1cccc([C@@H]2OC(=O)N[C@H]2c2cccc(C#Cc3ccccc3)n2)c1 (single isomer, unassigned) [Example 6]	> 1000 nM
O=C1N[C@H](c2cncc(C#Cc3cncc(F)c3)c2)[C@@H](c2ccc(F)cc2F)O1 [Example 182]	< 100 nM
CNc1ncc(C#Cc2cccc([C@H]3NC(=O)O[C@@H]3c3cccc(OC)c3)c2)cn1 [Example 93]	> 1000 nM
O=C1N[C@H](c2cc(C#Cc3ccc(F)cc3)ccn2)[C@@H](c2ccc(F)cc2)O1 (single isomer, unassigned) [Example 357]	< 100 nM
O=C1N[C@H](c2cncc(C#Cc3cccc(Cl)c3)c2)[C@@H](c2cc(F)ccc2F)O1 [Example 385, (4R,5R)-4-(5-((3-chlorophenyl)ethynyl)pyridin-3-yl)-5-(2,5-difluorophenyl)oxazolidin-2-one]	> 1000 nM
O=C1N[C@H](c2cncc(C#Cc3ccccc3)c2)[C@@H](c2ccccc2F)O1 [Example 404, (4R,5R)-5-(2-Fluorophenyl)-4-(5-(phenylethynyl)pyridin-3-yl)oxazolidin-2-one]	< 100 nM
COc1cccc([C@@H]2OC(=O)N[C@H]2c2cncc(C#Cc3ccccn3)c2)c1 (single isomer, unassigned) [Example 28]	> 1000 nM
O=C1N[C@H](c2cc(C#Cc3ccccc3Cl)ccn2)[C@@H](c2ccc(F)cc2)O1 (single isomer, unassigned) [Example 351]	100 to 1000 nM
O=C1N[C@H](c2cc(C#Cc3ccccc3)ncc2F)[C@@H](c2cc(F)ccc2F)O1 [Example 301, (4R,5R)-5-(2,5-Difluorophenyl)-4-(5-fluoro-2-(phenylethynyl)pyridin-4-yl)oxazolidin-2-one]	< 100 nM
O=C1N[C@H](c2cccc(C#Cc3ccccc3)c2)[C@@H](c2cccnn2)O1 [Example 243]	100 to 1000 nM and 272 nM
COc1cccc([C@H]2OC(=O)N[C@@H]2c2cccc(C#Cc3ccc(OC(F)(F)F)cc3)c2)c1 [Example 268]	> 1000 nM
COc1cncc(C#Cc2cccc([C@H]3NC(=O)O[C@@H]3c3cccc(OC)c3)c2)c1 [Example 49]	> 1000 nM
O=C1N[C@@H](c2cncc(C#Cc3ccccc3)c2)[C@H](c2cc(Cl)ccc2Cl)O1 (single isomer, unassigned) [Example 325]	> 1500 nM
O=C1N[C@H](c2cncc(C#Cc3ccc(Cl)cc3)c2)[C@@H](c2cc(F)ccc2F)O1 [Example 388, (4R,5R)-4-(5-((4-chlorophenyl)ethynyl)pyridin-3-y1)-5-(2,5-difluorophenyl)oxazolidin-2-one]	100 to 1000 nM
N#Cc1cccc(C#Cc2cncc([C@@H]3NC(=O)O[C@H]3c3cc(F)cc(F)c3)c2)c1 [Example 190]	> 1000 nM
O=C1N[C@H](c2cncc(C#Cc3cnccn3)c2)[C@@H](c2c(F)cc(F)cc2F)O1 [Example 295]	> 1000 nM
COc1cccc([C@H]2OC(=O)N[C@@H]2c2cccc(C#Cc3ccccc3OC)c2)c1 [Example 91, (4R,5R)-5-(3-Methoxyphenyl)-4-(3-((2-methoxyphenyl)ethynyl)phenyl)oxazolidin-2-one]	100 to 1000 nM
O=C1N[C@H](c2ccnc(C#Cc3ccccc3)c2)[C@@H](c2cccc(F)c2)O1 [Example 259]	< 100 nM and 1.9 nM
O=C1N[C@H](c2cccc(C#Cc3ccccc3)c2)[C@@H](c2ccccc2)O1 (single isomer, unassigned) [Example 95]	< 100 nM
O=C1N[C@H](c2cccc(C#Cc3ccccc3)c2)[C@@H](c2nnn[nH]2)O1 [Example 168, (4R,5S)-4-(3-(Phenylethynyl)phenyl)-5-(1H-tetrazol-5-yl)oxazolidin-2-one]	> 1000 nM
O=C1N[C@H](c2cncc(C#Cc3cccc(F)n3)c2)[C@@H](c2ccc(F)cc2)O1 [Example 216]	< 100 nM
O=C1N[C@@H](c2cc(C#Cc3ccccc3)ccn2)[C@H](c2ccccc2)O1 (single isomer, unassigned) [Example 19]	> 1000 nM
O=C1N[C@@H](c2cncc(C#Cc3cncc(F)c3)c2)[C@H](c2ccc(F)cc2)O1 (single isomer, unassigned) [Example 44]	> 1000 nM
Cn1nccc1[C@@H]1OC(=O)N[C@H]1c1cncc(C#Cc2ccccc2)c1 [Example 341, (4S,5R)-5-(1-methyl-1H-pyrazol-5-yl)-4-(5-(phenylethynyl)pyridin-3-yl)oxazolidin-2-one]	> 1000 nM

Other lines, results leading:

EC50	Structure (SMILES)
> 1000 nM	O=C1N[C@@H](c2cccc(C#Cc3ccnc(F)c3)n2)[C@H](c2ccc(F)cc2)O1 (single isomer, unassigned) [Example 373]
> 1000 nM	O=C1N[C@H](c2cccc(C#Cc3ccccn3)n2)[C@@H](c2ccccc2)O1 (single isomer, unassigned) [Example 24]
< 100 nM	O=C1N[C@H](c2cc(C#Cc3ccccc3F)ccn2)[C@@H](c2ccc(F)cc2)O1 (single isomer, unassigned) [Example 353]
100 to 1000 nM and 259 nM	N#Cc1cccc(C#Cc2cncc([C@H]3NC(=O)O[C@@H]3c3ccc(F)cc3F)c2)c1 [Example 180]
> 1000 nM	COc1ccccc1[C@@H]1OC(=O)N[C@H]1c1cncc(C#Cc2ccccc2)c1 (single isomer, unassigned) [Example 333]
< 100 nM	O=C1N[C@H](c2cncc(C#Cc3cncc(F)c3)c2)[C@@H](c2cc(F)ccc2F)O1 [Example 187]
100 to 1000 nM and 392 nM	O=C1N[C@@H](c2cc(C#Cc3ccccc3F)ccn2)[C@H](c2ccc(F)cc2)O1 (single isomer, unassigned) [Example 354]
> 3000 nM	O=C1N[C@@H](c2nc(C#Cc3ccccc3)ccc2F)[C@H](c2ccccc2)O1 (single isomer, unassigned) [Example 306]
100 to 1000 nM	O=C1N[C@H](c2cccc(C#Cc3ccccc3)n2)[C@@H](c2c(F)cc(F)cc2F)O1 (single isomer, unassigned) [Example 313]
< 100 nM	C[C@]1(c2cccc(C#Cc3ccccc3)n2)NC(=O)O[C@@H]1c1ccccc1F (single isomer, unassigned) [Example 378]
> 1000 nM	O=C1N[C@H](c2cc(C#Cc3cncc(C4CC4)c3)cnc2F)[C@@H](c2ccc(F)cc2)O1 [Example 155, (4R,5R)-4-(5-((5-Cyclopropylpyridin-3-yl)ethynyl)-2-fluoropyridin-3-yl)-5-(4-fluorophenyl)oxazolidin-2-one]
100 to 1000 nM and 141 nM	O=C1N[C@H](c2cncc(C#Cc3cncnc3)c2)[C@@H](c2cccc(F)c2)O1 [Example 398, (4R,5R)-5-(3-fluorophenyl)-4-(5-(pyrimidin-5-ylethynyl)pyridin-3-yl)oxazolidin-2-one]
> 1000 nM	O=C1N[C@H](c2cncc(C#Cc3ccccn3)c2)[C@@H](c2cc(F)ccc2F)O1 [Example 189]
> 3000 nM	O=C1N[C@H](c2cncc(C#Cc3ccccc3)c2)[C@@H](c2cc(Cl)ccc2Cl)O1 (single isomer, unassigned) [Example 326]
< 100 nM	N#Cc1cncc(C#Cc2cncc([C@H]3NC(=O)O[C@@H]3c3ccc(F)cc3)c2)c1 [Example 211]
< 100 nM and 3.8 nM	O=C1N[C@H](c2cncc(C#Cc3cncc(F)c3)c2)[C@@H](c2ccc(F)cc2)O1 (single isomer, unassigned) [Example 45]
